The kinase profiling compilation of Christmann-Franck et al. (2016)

Columns and labels:
Assay in all cases: KINOMEscan competition binding
Conditions in all cases: compound 10.0 µM
[1] = molecular target: PDGFRA (human) (UniProt P16234)
[2] = molecular target: ERBB4 (human) (UniProt Q15303)
[3] = tested on: ABL1 (human), P00519 [F317I]
[4] = molecular target: CDK14 (human) (UniProt O94921)
[5] = tested on: ABL1 (human), P00519 [Q252H]
[6] = molecular target: IGF1R (human) (UniProt P08069)
[7] = molecular target: CDK11B (human) (UniProt P21127)
[8] = molecular target: RIPK1 (human) (UniProt Q13546)
[9] = molecular target: MAPK9 (human) (UniProt P45984)
[10] = molecular target: MYO3A (human) (UniProt Q8NEV4)
[11] = molecular target: FRK (human) (UniProt P42685)
[12] = molecular target: MAP2K2 (human) (UniProt P36507)
Sequence of MAP2K2 (human) (P36507 whole entry, looked up): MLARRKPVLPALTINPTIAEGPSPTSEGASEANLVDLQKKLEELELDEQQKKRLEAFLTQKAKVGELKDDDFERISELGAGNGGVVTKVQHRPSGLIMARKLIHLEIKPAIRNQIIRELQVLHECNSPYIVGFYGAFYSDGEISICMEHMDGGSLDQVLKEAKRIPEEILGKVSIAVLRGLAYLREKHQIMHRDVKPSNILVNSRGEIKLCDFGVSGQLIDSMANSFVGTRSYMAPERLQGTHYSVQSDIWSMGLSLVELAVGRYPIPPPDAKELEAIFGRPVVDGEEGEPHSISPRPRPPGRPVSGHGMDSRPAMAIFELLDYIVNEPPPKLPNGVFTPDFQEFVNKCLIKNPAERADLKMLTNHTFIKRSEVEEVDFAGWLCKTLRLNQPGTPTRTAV

[13] = molecular target: CDK15 (human) (UniProt Q96Q40)
[14] = molecular target: NTRK2 (human) (UniProt Q16620)
[15] = molecular target: PTK6 (human) (UniProt Q13882)
Sequence of PTK6 (human) (Q13882 whole entry, looked up): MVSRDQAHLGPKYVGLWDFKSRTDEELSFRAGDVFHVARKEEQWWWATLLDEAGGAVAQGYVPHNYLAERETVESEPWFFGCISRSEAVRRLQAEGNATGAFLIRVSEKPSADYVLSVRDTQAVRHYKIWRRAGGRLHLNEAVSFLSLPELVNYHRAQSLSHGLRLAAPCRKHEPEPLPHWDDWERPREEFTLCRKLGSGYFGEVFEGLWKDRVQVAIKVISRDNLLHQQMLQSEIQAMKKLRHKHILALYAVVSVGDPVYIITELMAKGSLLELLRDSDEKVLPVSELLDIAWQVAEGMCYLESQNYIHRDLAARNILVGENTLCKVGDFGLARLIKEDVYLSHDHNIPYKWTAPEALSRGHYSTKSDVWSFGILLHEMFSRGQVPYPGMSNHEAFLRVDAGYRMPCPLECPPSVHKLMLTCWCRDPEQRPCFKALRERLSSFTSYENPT

[16] = molecular target: PRKAA1 (human) (UniProt Q13131)
[17] = tested on: EGFR (human), P00533 [G719C; 746-750 del]
[18] = molecular target: CHEK1 (human) (UniProt O14757)
[19] = molecular target: FER (human) (UniProt P16591)
[20] = tested on: PIK3CA (human), P42336 [E545K]
[21] = molecular target: MARK1 (human) (UniProt Q9P0L2)
[22] = molecular target: BMPR2 (human) (UniProt Q13873)
[23] = molecular target: BMX (human) (UniProt P51813)
[24] = molecular target: AKT2 (human) (UniProt P31751)
[25] = molecular target: SRMS (human) (UniProt Q9H3Y6)
[26] = molecular target: NUAK1 (human) (UniProt O60285)
[27] = molecular target: LIMK2 (human) (UniProt P53671)
[28] = molecular target: YES1 (human) (UniProt P07947)
[29] = molecular target: MET (human) (UniProt P08581)
[30] = molecular target: MAP3K11 (human) (UniProt Q16584)
Sequence of MAP3K11 (human) (Q16584 whole entry, looked up): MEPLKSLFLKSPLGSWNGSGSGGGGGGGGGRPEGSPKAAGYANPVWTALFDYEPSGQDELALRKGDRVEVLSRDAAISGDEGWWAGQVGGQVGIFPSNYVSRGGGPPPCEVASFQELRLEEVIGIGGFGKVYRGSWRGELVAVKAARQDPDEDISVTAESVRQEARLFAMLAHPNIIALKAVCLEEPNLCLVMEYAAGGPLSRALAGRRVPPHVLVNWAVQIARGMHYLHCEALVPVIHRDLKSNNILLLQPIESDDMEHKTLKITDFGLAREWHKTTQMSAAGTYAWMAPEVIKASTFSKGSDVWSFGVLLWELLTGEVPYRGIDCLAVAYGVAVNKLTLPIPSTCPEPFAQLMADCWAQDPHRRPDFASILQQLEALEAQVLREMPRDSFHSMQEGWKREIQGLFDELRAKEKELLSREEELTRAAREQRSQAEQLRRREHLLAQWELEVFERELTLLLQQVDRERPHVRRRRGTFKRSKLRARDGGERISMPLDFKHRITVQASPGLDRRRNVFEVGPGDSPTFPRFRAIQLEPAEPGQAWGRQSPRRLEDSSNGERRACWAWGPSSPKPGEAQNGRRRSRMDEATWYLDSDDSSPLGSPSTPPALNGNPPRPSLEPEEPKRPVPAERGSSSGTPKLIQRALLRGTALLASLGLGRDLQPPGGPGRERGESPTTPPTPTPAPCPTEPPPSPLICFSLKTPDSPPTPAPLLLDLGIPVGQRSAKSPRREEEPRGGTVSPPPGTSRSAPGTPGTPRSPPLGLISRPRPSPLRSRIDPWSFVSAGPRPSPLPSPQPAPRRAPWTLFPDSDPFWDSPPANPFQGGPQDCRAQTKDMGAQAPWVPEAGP

[31] = molecular target: STK32C (human) (UniProt Q86UX6)
[32] = molecular target: CDK17 (human) (UniProt Q00537)
[33] = molecular target: DCLK1 (human) (UniProt O15075)
Sequence of DCLK1 (human) (O15075 whole entry, looked up): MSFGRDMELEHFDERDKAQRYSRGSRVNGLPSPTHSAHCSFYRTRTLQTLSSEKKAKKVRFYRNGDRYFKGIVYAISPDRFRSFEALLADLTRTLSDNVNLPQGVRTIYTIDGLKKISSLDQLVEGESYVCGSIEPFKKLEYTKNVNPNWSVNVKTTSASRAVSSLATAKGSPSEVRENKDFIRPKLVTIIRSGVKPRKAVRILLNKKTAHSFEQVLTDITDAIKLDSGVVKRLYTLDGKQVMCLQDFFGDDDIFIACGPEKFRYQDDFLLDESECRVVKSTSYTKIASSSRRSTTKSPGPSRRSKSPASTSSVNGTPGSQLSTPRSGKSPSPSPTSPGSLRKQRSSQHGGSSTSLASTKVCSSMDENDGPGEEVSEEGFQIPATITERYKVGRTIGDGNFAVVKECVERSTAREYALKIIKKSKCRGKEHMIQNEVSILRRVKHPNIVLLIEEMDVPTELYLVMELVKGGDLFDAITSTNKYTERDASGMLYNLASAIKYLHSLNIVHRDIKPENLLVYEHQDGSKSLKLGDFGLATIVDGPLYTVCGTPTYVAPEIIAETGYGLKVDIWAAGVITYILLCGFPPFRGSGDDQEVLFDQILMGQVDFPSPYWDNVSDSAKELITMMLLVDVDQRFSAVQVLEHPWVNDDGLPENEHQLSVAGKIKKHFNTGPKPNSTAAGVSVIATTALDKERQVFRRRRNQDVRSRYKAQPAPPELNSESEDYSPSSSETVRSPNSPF

[34] = molecular target: PAK4 (human) (UniProt O96013)
[35] = molecular target: PTK2 (human) (UniProt Q05397)
[36] = molecular target: MAPK1 (human) (UniProt P28482)
[37] = molecular target: PRKX (human) (UniProt P51817)
Sequence of PRKX (human) (P51817 whole entry, looked up): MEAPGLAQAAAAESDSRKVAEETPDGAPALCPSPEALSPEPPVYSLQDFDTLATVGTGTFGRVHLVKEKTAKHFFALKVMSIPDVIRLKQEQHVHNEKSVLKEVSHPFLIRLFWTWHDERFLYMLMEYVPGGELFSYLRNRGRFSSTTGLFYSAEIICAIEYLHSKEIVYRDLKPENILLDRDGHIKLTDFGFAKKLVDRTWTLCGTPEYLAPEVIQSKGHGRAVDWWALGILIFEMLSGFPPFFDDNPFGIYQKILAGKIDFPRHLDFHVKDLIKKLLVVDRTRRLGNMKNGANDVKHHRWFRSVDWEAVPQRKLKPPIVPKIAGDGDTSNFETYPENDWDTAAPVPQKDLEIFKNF

[38] = molecular target: MARK4 (human) (UniProt Q96L34)
[39] = molecular target: CDC2L2 (human) (UniProt Q9UQ88)
[40] = molecular target: PAK3 (human) (UniProt O75914)
[41] = molecular target: TSSK1B (human) (UniProt Q9BXA7)
[42] = molecular target: MUSK (human) (UniProt O15146)
Sequence of MUSK (human) (O15146 whole entry, looked up): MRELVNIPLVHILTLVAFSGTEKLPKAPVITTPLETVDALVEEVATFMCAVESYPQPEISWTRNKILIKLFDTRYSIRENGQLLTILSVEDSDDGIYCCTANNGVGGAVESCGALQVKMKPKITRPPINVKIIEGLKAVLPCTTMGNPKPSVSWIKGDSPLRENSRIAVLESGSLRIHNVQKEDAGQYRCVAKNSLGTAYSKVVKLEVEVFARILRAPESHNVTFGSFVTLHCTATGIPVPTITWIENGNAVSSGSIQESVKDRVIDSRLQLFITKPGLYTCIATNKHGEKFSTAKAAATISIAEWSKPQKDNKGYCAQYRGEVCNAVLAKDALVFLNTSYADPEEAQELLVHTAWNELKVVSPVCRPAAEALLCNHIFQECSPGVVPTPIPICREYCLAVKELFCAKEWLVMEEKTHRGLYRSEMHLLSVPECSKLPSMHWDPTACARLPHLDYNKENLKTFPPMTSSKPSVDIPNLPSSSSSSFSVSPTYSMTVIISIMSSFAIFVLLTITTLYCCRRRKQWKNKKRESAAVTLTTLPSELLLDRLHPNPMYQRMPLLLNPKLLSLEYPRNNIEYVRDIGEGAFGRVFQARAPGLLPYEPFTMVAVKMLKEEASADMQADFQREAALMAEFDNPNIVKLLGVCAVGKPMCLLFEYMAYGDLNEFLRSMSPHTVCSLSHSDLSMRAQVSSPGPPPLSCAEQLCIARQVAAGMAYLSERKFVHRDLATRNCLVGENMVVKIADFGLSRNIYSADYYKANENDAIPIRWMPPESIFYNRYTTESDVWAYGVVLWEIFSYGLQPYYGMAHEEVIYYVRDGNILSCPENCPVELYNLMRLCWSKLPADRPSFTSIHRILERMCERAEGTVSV

Sequence of ERBB4 (human) (Q15303 whole entry, looked up): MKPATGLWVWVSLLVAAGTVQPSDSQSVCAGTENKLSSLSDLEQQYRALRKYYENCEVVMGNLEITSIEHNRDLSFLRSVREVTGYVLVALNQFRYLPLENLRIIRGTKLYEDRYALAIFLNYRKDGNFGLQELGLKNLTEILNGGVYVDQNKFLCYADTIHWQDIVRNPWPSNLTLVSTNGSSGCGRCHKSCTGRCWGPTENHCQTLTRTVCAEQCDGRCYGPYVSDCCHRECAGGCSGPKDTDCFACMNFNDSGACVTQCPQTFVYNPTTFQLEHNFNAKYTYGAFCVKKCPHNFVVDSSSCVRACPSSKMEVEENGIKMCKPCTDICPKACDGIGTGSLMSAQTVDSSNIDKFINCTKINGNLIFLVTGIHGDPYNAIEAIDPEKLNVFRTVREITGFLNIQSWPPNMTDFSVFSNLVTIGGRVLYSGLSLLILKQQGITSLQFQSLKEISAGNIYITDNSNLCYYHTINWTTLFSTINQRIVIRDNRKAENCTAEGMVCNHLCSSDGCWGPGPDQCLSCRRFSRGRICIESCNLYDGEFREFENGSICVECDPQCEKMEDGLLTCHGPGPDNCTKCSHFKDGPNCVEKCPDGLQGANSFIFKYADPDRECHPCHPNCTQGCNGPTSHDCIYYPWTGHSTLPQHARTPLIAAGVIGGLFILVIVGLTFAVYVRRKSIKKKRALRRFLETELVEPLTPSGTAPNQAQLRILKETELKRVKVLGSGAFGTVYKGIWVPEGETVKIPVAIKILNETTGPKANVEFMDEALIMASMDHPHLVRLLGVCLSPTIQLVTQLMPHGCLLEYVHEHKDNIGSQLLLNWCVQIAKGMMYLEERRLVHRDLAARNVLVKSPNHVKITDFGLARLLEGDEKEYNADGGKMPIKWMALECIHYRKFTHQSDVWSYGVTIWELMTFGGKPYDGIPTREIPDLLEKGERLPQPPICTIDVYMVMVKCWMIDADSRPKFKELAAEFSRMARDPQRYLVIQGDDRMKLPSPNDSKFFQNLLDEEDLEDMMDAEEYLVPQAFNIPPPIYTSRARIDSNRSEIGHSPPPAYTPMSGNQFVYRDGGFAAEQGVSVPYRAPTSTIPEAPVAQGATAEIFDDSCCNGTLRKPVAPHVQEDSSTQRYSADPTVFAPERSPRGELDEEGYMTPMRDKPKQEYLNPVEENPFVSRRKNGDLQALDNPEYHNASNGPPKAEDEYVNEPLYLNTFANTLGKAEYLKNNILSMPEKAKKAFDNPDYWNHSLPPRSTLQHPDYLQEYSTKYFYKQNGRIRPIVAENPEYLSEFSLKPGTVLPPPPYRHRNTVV

## COc1cc(N2CCC(O)CC2)ccc1Nc1ncc2c(n1)N1CCc3cccc(c31)C(=O)N2C
[1]
  kinase still bound, per cent of control: 98%
[2]
  kinase still bound, per cent of control: 87%
[3]
  kinase still bound, per cent of control: 88%
[4]
  kinase still bound, per cent of control: 91%
[5]
  kinase still bound, per cent of control: 100%
[6]
  kinase still bound, per cent of control: 100%
[7]
  kinase still bound, per cent of control: 100%
[8]
  kinase still bound, per cent of control: 100%
[9]
  kinase still bound, per cent of control: 51%
[10]
  kinase still bound, per cent of control: 54%
[11]
  kinase still bound, per cent of control: 81%
[12]
  kinase still bound, per cent of control: 99%
[13]
  kinase still bound, per cent of control: 99%
[14]
  kinase still bound, per cent of control: 100%
[15]
  kinase still bound, per cent of control: 100%
[16]
  kinase still bound, per cent of control: 84%
[17]
  kinase still bound, per cent of control: 78%
[18]
  kinase still bound, per cent of control: 100%
[19]
  kinase still bound, per cent of control: 74%
[20]
  kinase still bound, per cent of control: 88%
[21]
  kinase still bound, per cent of control: 95%
[22]
  kinase still bound, per cent of control: 100%
[23]
  kinase still bound, per cent of control: 93%
[24]
  kinase still bound, per cent of control: 100%
[25]
  kinase still bound, per cent of control: 87%
[26]
  kinase still bound, per cent of control: 100%
[27]
  kinase still bound, per cent of control: 100%
[28]
  kinase still bound, per cent of control: 99%
[29]
  kinase still bound, per cent of control: 90%
[30]
  kinase still bound, per cent of control: 100%
[31]
  kinase still bound, per cent of control: 75%
[32]
  kinase still bound, per cent of control: 94%
[33]
  kinase still bound, per cent of control: 4.5%
[34]
  kinase still bound, per cent of control: 90%
[35]
  kinase still bound, per cent of control: 4.6%
[36]
  kinase still bound, per cent of control: 75%
[37]
  kinase still bound, per cent of control: 91%
[38]
  kinase still bound, per cent of control: 86%
[39]
  kinase still bound, per cent of control: 100%
[40]
  kinase still bound, per cent of control: 58%
[41]
  kinase still bound, per cent of control: 74%
[42]
  kinase still bound, per cent of control: 100%

## COc1cc(N2CCN(C)CC2)ccc1Nc1ncc2c(n1)N(C)c1ccccc1N(C)C2=O
[1]
  kinase still bound, per cent of control: 100%
[2]
  kinase still bound, per cent of control: 88%
[3]
  kinase still bound, per cent of control: 67%
[4]
  kinase still bound, per cent of control: 100%
[5]
  kinase still bound, per cent of control: 100%
[6]
  kinase still bound, per cent of control: 100%
[7]
  kinase still bound, per cent of control: 100%
[8]
  kinase still bound, per cent of control: 100%
[9]
  kinase still bound, per cent of control: 87%
[10]
  kinase still bound, per cent of control: 74%
[11]
  kinase still bound, per cent of control: 51%
[12]
  kinase still bound, per cent of control: 100%
[13]
  kinase still bound, per cent of control: 68%
[14]
  kinase still bound, per cent of control: 100%
[15]
  kinase still bound, per cent of control: 32%
[16]
  kinase still bound, per cent of control: 92%
[17]
  kinase still bound, per cent of control: 61%
[18]
  kinase still bound, per cent of control: 100%
[19]
  kinase still bound, per cent of control: 80%
[20]
  kinase still bound, per cent of control: 97%
[21]
  kinase still bound, per cent of control: 86%
[22]
  kinase still bound, per cent of control: 100%
[23]
  kinase still bound, per cent of control: 96%
[24]
  kinase still bound, per cent of control: 100%
[25]
  kinase still bound, per cent of control: 100%
[26]
  kinase still bound, per cent of control: 100%
[27]
  kinase still bound, per cent of control: 86%
[28]
  kinase still bound, per cent of control: 100%
[29]
  kinase still bound, per cent of control: 90%
[30]
  kinase still bound, per cent of control: 100%
[31]
  kinase still bound, per cent of control: 100%
[32]
  kinase still bound, per cent of control: 100%
[33]
  kinase still bound, per cent of control: 56%
[34]
  kinase still bound, per cent of control: 100%
[35]
  kinase still bound, per cent of control: 85%
[36]
  kinase still bound, per cent of control: 100%
[37]
  kinase still bound, per cent of control: 83%
[38]
  kinase still bound, per cent of control: 63%
[39]
  kinase still bound, per cent of control: 100%
[40]
  kinase still bound, per cent of control: 93%
[41]
  kinase still bound, per cent of control: 53%
[42]
  kinase still bound, per cent of control: 100%

## CN1C(=O)c2ccccc2N(C)c2nc(NS(=O)(=O)c3ccc(N)cc3)ncc21
[1]
  kinase still bound, per cent of control: 100%
[2]
  kinase still bound, per cent of control: 100%
[3]
  kinase still bound, per cent of control: 100%
[4]
  kinase still bound, per cent of control: 100%
[5]
  kinase still bound, per cent of control: 82%
[6]
  kinase still bound, per cent of control: 100%
[7]
  kinase still bound, per cent of control: 96%
[8]
  kinase still bound, per cent of control: 100%
[9]
  kinase still bound, per cent of control: 100%
[10]
  kinase still bound, per cent of control: 100%
[11]
  kinase still bound, per cent of control: 100%
[12]
  kinase still bound, per cent of control: 100%
[13]
  kinase still bound, per cent of control: 100%
[14]
  kinase still bound, per cent of control: 53%
[15]
  kinase still bound, per cent of control: 100%
[16]
  kinase still bound, per cent of control: 100%
[17]
  kinase still bound, per cent of control: 100%
[18]
  kinase still bound, per cent of control: 98%
[19]
  kinase still bound, per cent of control: 62%
[20]
  kinase still bound, per cent of control: 91%
[21]
  kinase still bound, per cent of control: 100%
[22]
  kinase still bound, per cent of control: 100%
[23]
  kinase still bound, per cent of control: 100%
[24]
  kinase still bound, per cent of control: 100%
[25]
  kinase still bound, per cent of control: 84%
[26]
  kinase still bound, per cent of control: 86%
[27]
  kinase still bound, per cent of control: 100%
[28]
  kinase still bound, per cent of control: 100%
[29]
  kinase still bound, per cent of control: 100%
[30]
  kinase still bound, per cent of control: 100%
[31]
  kinase still bound, per cent of control: 100%
[32]
  kinase still bound, per cent of control: 100%
[33]
  kinase still bound, per cent of control: 39%
[34]
  kinase still bound, per cent of control: 100%
[35]
  kinase still bound, per cent of control: 100%
[36]
  kinase still bound, per cent of control: 100%
[37]
  kinase still bound, per cent of control: 94%
[38]
  kinase still bound, per cent of control: 93%
[39]
  kinase still bound, per cent of control: 100%
[40]
  kinase still bound, per cent of control: 76%
[41]
  kinase still bound, per cent of control: 100%
[42]
  kinase still bound, per cent of control: 100%
